# Results taken from patent US7739055B2, “Methods and systems for generating and evaluating peptides” (priority 2005, dated 2010).
# Where two headings read alike, the source gives them in different places. Where a SMILES comes first, the peptide text is derived from it.
# How the values were obtained:
# [1] = test system: Smith Diffuse strain of Staphylococcus aureus
# [2] = test system: Sterne strain of Bacillus anthracis
# [3] = first concentration that prohibits growth by OD at 24 hours, Table 1
Compound,MIC B. cereus (B. cereus; 24 h) [µg/mL],"HC50, hemolytic concentration at which the peptides lyse 50% of human red blood cells (human red blood cells)",MIC S. aureus ([1]; Smith Diffuse strain of) [µg/mL],MIC B. anthracis [2],MIC E. coli (Escherichia coli; 24 h) [µg/mL],"MIC S. aureus ([1]; Smith Diffuse strain, Table 1)",MIC E. coli (Escherichia coli; [3]),MIC B. cereus (B. cereus; [3]),MIC B. cereus (B. cereus),MIC S. aureus [1]
CC(C)C[C@H](NC(=O)[C@H](CCCCN)NC(=O)[C@H](Cc1ccccc1)NC(=O)[C@@H](NC(=O)[C@@H](NC(=O)CNC(=O)[C@H](CC(C)C)NC(=O)[C@@H](N)Cc1ccccc1)C(C)C)C(C)C)C(=O)N[C@@H](C)C(=O)N[C@@H](CO)C(=O)N[C@@H](CCCCN)C(=O)N[C@H](C(=O)N[C@@H](Cc1ccccc1)C(=O)N1CCC[C@H]1C(=O)N[C@@H](C)C(=O)N[C@H](C(=O)N[C@@H](Cc1ccccc1)C(=O)NCC(=O)N[C@@H](CCCCN)C(=O)N[C@H](C(=O)O)C(C)C)C(C)C)C(C)C [Peptide 28] (H-FLGVVFKLASKVFPAVFGKV-OH; N-terminus and C-terminus assumed),16,42 µg/mL,8,16 µg/mL,64,–,–,–,–,–
CC[C@H](C)[C@H](NC(=O)[C@H](CC(C)C)NC(=O)[C@H](C)NC(=O)[C@@H]1CCCN1C(=O)[C@H](Cc1ccccc1)NC(=O)[C@@H](NC(=O)[C@H](CCCCN)NC(=O)[C@H](CO)NC(=O)[C@H](C)NC(=O)[C@@H](NC(=O)[C@H](CCCNC(=N)N)NC(=O)[C@H](Cc1ccccc1)NC(=O)[C@H](CC(C)C)NC(=O)[C@@H](N)Cc1ccccc1)C(C)C)C(C)C)C(=O)NCC(=O)N[C@@H](CCCCN)C(=O)N[C@@H](Cc1ccccc1)C(=O)N[C@@H](CCCCN)C(=O)N[C@@H](CCCCN)C(=O)N[C@@H](CCCCN)C(=O)O [Peptide 51] (H-FLFRVASKVFPALIGKFKKK-OH; N-terminus and C-terminus assumed),16,greater than 512 μg/ml,16,16 µg/mL,64,–,–,–,–,–
CC(C)C[C@H](NC(=O)[C@@H](NC(=O)[C@@H]1CCCN1C(=O)[C@H](CC(C)C)NC(=O)[C@@H](N)Cc1ccccc1)C(C)C)C(=O)N[C@H](C(=O)N[C@@H](CCCCN)C(=O)N[C@H](C(=O)N[C@@H](Cc1ccccc1)C(=O)N[C@@H](CCCNC(=N)N)C(=O)N[C@@H](Cc1ccc(O)cc1)C(=O)N[C@@H](CO)C(=O)N[C@@H](CCCCN)C(=O)N[C@@H](CCCCN)C(=O)N[C@H](C(=O)N[C@@H](C)C(=O)N[C@@H](C)C(=O)NCC(=O)N[C@@H](CS)C(=O)N[C@@H](Cc1ccccc1)C(=O)O)[C@@H](C)O)C(C)C)C(C)C [Shuffled 5] (H-FLPVLVKVFRYSKKTAAGCF-OH; N-terminus and C-terminus assumed),64,–,–,"+ (key: +: MIC greater than 256 ug/mL; ++: MIC greater than 128 ug/mL, not sufficiently soluble to test as 256 ug/mL)",–,+ (MIC greater than 256 ug/mL),"++ (MIC greater than 128 ug/mL, not sufficiently soluble to test as 256 ug/mL)",–,–,–
ASPTVFRSSVFLSLFVVAKK [Shuffled 43],–,–,–,"+ (key: +: MIC greater than 256 ug/mL; ++: MIC greater than 128 ug/mL, not sufficiently soluble to test as 256 ug/mL)",–,+ (MIC greater than 256 ug/mL),+ (MIC greater than 256 ug/mL),+ (MIC greater than 256 ug/mL),–,–
GVSVAGAKKVKVLFVFPFLF [Shuffled 28],–,–,–,"+ (key: +: MIC greater than 256 ug/mL; ++: MIC greater than 128 ug/mL, not sufficiently soluble to test as 256 ug/mL)",–,+ (MIC greater than 256 ug/mL),+ (MIC greater than 256 ug/mL),+ (MIC greater than 256 ug/mL),–,–
KVFIATLVVSSFLLAKPPRV [Shuffled 35],–,–,–,"+ (key: +: MIC greater than 256 ug/mL; ++: MIC greater than 128 ug/mL, not sufficiently soluble to test as 256 ug/mL)",–,+ (MIC greater than 256 ug/mL),+ (MIC greater than 256 ug/mL),+ (MIC greater than 256 ug/mL),–,–
SVPSVGAVLFFKRAAVMKLI [Shuffled 22],–,–,–,"+ (key: +: MIC greater than 256 ug/mL; ++: MIC greater than 128 ug/mL, not sufficiently soluble to test as 256 ug/mL)",–,+ (MIC greater than 256 ug/mL),+ (MIC greater than 256 ug/mL),+ (MIC greater than 256 ug/mL),–,–
THIHMNARLLIRSPFTDPQL [Peptide 10],–,–,–,"+ (key: +: MIC greater than 256 ug/mL; ++: MIC greater than 128 ug/mL, not sufficiently soluble to test as 256 ug/mL)",–,–,+ (MIC greater than 256 ug/mL),–,"+ (key: +: MIC greater than 256 ug/mL; ++: MIC greater than 128 ug/mL, not sufficiently soluble to test as 256 ug/mL)","+ (key: +: MIC greater than 256 ug/mL; ++: MIC greater than 128 ug/mL, not sufficiently soluble to test as 256 ug/mL)"
